Measured values: US20250205198A1, “METHODS FOR DELIVERY OF PSYCHEDELIC MEDICATIONS BY INHALATION AND SYSTEMS FOR PERFORMING THE METHODS” (Cybin IRL Limited, priority 2022, published 2025)

Key:
[1] = Plasma pharmacokinetics after 20-minute snout-only inhalation (nebulized aerosol) co-administration of DMT and DMT-d10 to male rats (Group 6); conditions: for mean residence time (MRT) after inhalation compared to IV administration, fold greater: inhalation vs IV; for time of highest plasma concentration (first time point taken): after start of inhalation; for AUC0-1/dose: dose normalized
[2] = Plasma pharmacokinetics after intravenous (bolus) co-administration of DMT and DMT-d10 to male rats (Group 4); conditions: for AUC0-1/dose: dose normalized; for t1/2: calculated 0.083 to 1.0 hr
[3] = Brain pharmacokinetics and brain to plasma ratio after intravenous (bolus) co-administration of DMT and DMT-d10 to male rats (Group 4); conditions: for Kp: male, Sprague Dawley, rat, iv, 1 mg/kg
[4] = Plasma pharmacokinetics after oral gavage co-administration of DMT and DMT-d10 to male rats (Group 2); conditions: for bioavailability / AUC(0-t): male, Sprague Dawley, rat, po, 10 mg/kg; for bioavailability / AUC(0-t) / AUC0-1/dose: plasma; for time of peak plasma concentration postdose: oral administration 10 mg/kg; for AUC0-1/dose: dose normalized
[5] = plasma, inhalation 14.3 mg/kg DMT, 15.5 mg/kg DMT-d10
[6] = plasma, male rats, inhalation 14.3 mg/kg DMT + 15.5 mg/kg DMT-d10
[7] = summary table, plasma, inhalation 14.3 mg/kg DMT, 15.5 mg/kg DMT-d10
[8] = male, Sprague Dawley, rat, plasma, iv, 1 mg/kg
[9] = plasma, male rats, IV bolus 1 mg/kg, co-administered
[10] = summary table, plasma, intravenous 1 mg/kg
[11] = brain, male rats, IV bolus 1 mg/kg, co-administered
[12] = AUC0-t, male rats, oral gavage (OG) 10 mg/kg, co-administered
[13] = male, Sprague Dawley, rat, plasma, inhaled or intranasal, 15.5 mg/kg

| SMILES | mean residence time (MRT) after inhalation compared to IV administration, fold greater [1] | time of highest plasma concentration (first time point taken) ([1]; inhalation) [h] | AUC0-1/dose [1, 5] | AUC0-1 [1, 7] [ng·h/mL] | time of highest plasma concentration (first time point taken) ([2]; IV bolus 1 mg/kg) [h] | MRT last [2, 8] [min] | AUC0-1/dose ([2]; plasma, intravenous 1 mg/kg) | AUC0-1 [2, 9] [ng·h/mL] | AUC(0-t) [2, 9] [ng·h/mL] | AUC0-1 [2, 10] [ng·h/mL] | t1/2 [2, 10] [min] | AUC0-t (brain) [3, 11] [ng·h/g] | Cmax (brain) [3, 11] [ng/g] | Kp ([3]; brain) | bioavailability [4] [%] | AUC(0-t) [4, 12] [ng·h/mL] | time of peak plasma concentration postdose [4] [h] | AUC0-1/dose ([4]; oral 10 mg/kg) | further results |
| --- | --- | --- | --- | --- | --- | --- | --- | --- | --- | --- | --- | --- | --- | --- | --- | --- | --- | --- | --- |
| CN(C)CCc1c[nH]c2ccccc12 [DMT, N,N-dimethyltryptamine, reference compound] | approximately 5 × | 0.333 | 18.2 | 260 | 0.083 | 12.7 | 112 | 112 | 112 | 112 | 10.3 | 1060 | 3430 | 9.5 | 1.36 | 109 | 1 | 1.52 | AUC(0-t) [1, 6]: 308 ng·h/mL; half-life [2, 8]: 10.3 min; AUC0-inf [2, 9]: 114 ng·h/mL; AUC0-inf (brain) [3, 11]: 1070 ng·h/g; t1/2 (brain) ([3]; brain, male rats, IV bolus 1 mg/kg, calculated 0.25 to 1 hr): 9.3 min; AUC(0-t) ([4]; AUC0-1, plasma, male rats, oral gavage (OG) 10 mg/kg, co-administered): 15.2 ng·h/mL; AUC(0-t) ([4]; AUC0-1, summary table, oral 10 mg/kg): 15.2 ng·h/mL |
| [2H]C([2H])([2H])N(C([2H])([2H])[2H])C([2H])([2H])C([2H])([2H])c1c[nH]c2ccccc12 [DMT-d10, 2-(1H-indol-3-yl)-N,N-bis(methyl-d3)ethan-1-amine-1,1,2,2-d4] | approximately 5 × | 0.333 | 17.0 | 264 | 0.083 | 19.6 | 75.4 | 75.4 | 75.4 | 75.4 | 26.8 | 931 | 1490 | 12.3 | 1.16 | 80.2 | 1 | 0.878 | improvement of duration of exposure (MRTlast) by deuteration ([1]; DMT-d10 vs. DMT, after inhalation): 24.6%; increase of inhalation bioavailability by deuteration ([1]; DMT-d10 vs. DMT, inhalation): approximately 40%; inhalation bioavailability, fold greater than oral bioavailability ([1]; inhalation vs oral): approximately 20 ×; AUC0-inf [1, 13]: 384 ng·h/mL; half-life [1, 13]: 325 min; AUC0-1 [1, 6]: 264 ng·h/mL; t1/2 ([1]; summary table, plasma, inhalation 15.5 mg/kg DMT-d10, calculated 0.333 to 3.333 hr): 325 min; improvement of duration of exposure (MRTlast) by deuteration ([2]; DMT-d10 vs. DMT, after IV): 54.5%; t1/2 ([2]; plasma, male rats, IV bolus 1 mg/kg): 26.8 min; improvement of brain to plasma (B/P) ratio by deuteration ([3]; DMT-d10 vs. DMT, IV 1 mg/kg): approximately 30% |
